Laboratory results: patent US12161630B2, “Methods to control infection using new generation small molecule growth inhibitors” (priority 2017, dated 2024)
In brackets after ≈: the same amount, converted by molar mass.

Assays:
[1] = system: Salmonella Enteritidis; test: MIC and MBC dose-response, serotype Enteritidis; type: cell-based, Salmonella enterica; conditions: MIC identical to MBC
Method: (§1) An overnight Salmonella suspension was normalized at 0.05 OD600 (approximately 3.5×10^7 CFU/ml) with an adjusted M9 minimal broth medium (12.7 mM Na2HPO4 7H2O; 22 mM KH2PO4; 18.7 mM NH4Cl; 2 mM MgSO4; 0.1 mM CaCl2; 0.4% glucose; 0.05% casamino acids). 100 μL of the suspension plus 2 μl of SMs (200 μM) were transferred into each well of a sterile, non-treated, flat bottom 96-well plate. Bacteria alone (negative control, NC), 2% DMSO plus bacteria (DMSO control), 20 μg/ml chloramphenicol or 50 μg/ml kanamycin plus bacteria (positive controls, PC), and M9 medium only were used as control. Plates were incubated in a Sunrise™ Tecan kinetic microplate reader for 12 hrs at 37° C. and the optical density (OD) was measure at 600 nm as described above. Percentage of inhibition=(OD600 SM−OD600 NC)/(OD600 NC)×100. […] Cultures from wells showing no turbidimetric increase were transferred onto a XLT4 agar plate. Plates were incubated at 37° C. for 36 hrs.
(§2) Screens were performed as described in the primary screen. The lowest SM concentration with a static effect was considered as the minimal inhibitory concentration (MIC) and the lowest SM concentration with a cidal effect was considered as the minimal bactericidal concentration (MBC).

[2] = system: S. typhimurium WT; test: High-throughput primary screen for S. typhimurium growth inhibitors at 200 μM; type: cell-based, Salmonella enterica subsp. enterica serovar Typhimurium LT2; conditions: adjusted M9 minimal broth, 12 hrs, 37° C., bactericidal = 100% growth inhibition and no growth on XLT4 agar, bacteriostatic = 100% growth inhibition but growth on XLT4 agar
Method: Identification of S. typhimurium growth inhibitors: The 4182 small molecules (SMs) were screened at 200 μM against S. typhimurium WT using HTS assay in a 96-well plate format. An overnight Salmonella suspension was normalized at 0.05 OD600 (approximately 3.5×10^7 CFU/ml) with an adjusted M9 minimal broth medium (12.7 mM Na2HPO4 7H2O; 22 mM KH2PO4; 18.7 mM NH4Cl; 2 mM MgSO4; 0.1 mM CaCl2; 0.4% glucose; 0.05% casamino acids). 100 μL of the suspension plus 2 μl of SMs (200 μM) were transferred into each well of a sterile, non-treated, flat bottom 96-well plate. Bacteria alone (negative control, NC), 2% DMSO plus bacteria (DMSO control), 20 μg/ml chloramphenicol or 50 μg/ml kanamycin plus bacteria (positive controls, PC), and M9 medium only were used as control. Plates were incubated in a Sunrise™ Tecan kinetic microplate reader for 12 hrs at 37° C. and the optical density (OD) was measure at 600 nm as described above. Percentage of inhibition=[…]. SMs were identified as growth inhibitors if their inhibition value after incubation was above 20% (value representing the inhibition level monitored with the DMSO controls). Cultures from wells showing no turbidimetric increase were transferred onto a XLT4 agar plate. Plates were incubated at 37° C. for 36 hrs.

[3] = system: Salmonella Braenderup; test: MIC and MBC dose-response, serotype Braenderup; type: cell-based, Salmonella enterica; conditions: MIC identical to MBC
[4] = system: Salmonella Heidelberg; test: MIC and MBC dose-response, serotype Heidelberg; type: cell-based, Salmonella enterica; conditions: MIC identical to MBC
Method: as §1, §2

[5] = system: Salmonella Javiana; test: MIC and MBC dose-response, serotype Javiana; type: cell-based, Salmonella enterica; conditions: MIC identical to MBC
Method: as §1, §2

[6] = system: Salmonella Saint-Paul; test: MIC and MBC dose-response, serotype Saint-Paul; type: cell-based; conditions: MIC identical to MBC
Method: as §1, §2

[7] = system: S. typhimurium WT; test: Antimicrobial resistance studies (single step and sequential passage); type: cell-based, Salmonella enterica subsp. enterica serovar Typhimurium LT2
Method: Antimicrobial resistance studies: Single step and sequential passage resistance assays were performed as described (9). The MIC of the selected five SMs against S. typhimurium WT was used as reference for lethal (2×MIC) and sub-lethal (0.75×MIC) doses.
The medium was allowed to solidify overnight in the dark at room temperature. The next day, 100 μl of S. typhimurium bacteria (approximately 10^9 CFU) was transferred onto the adjusted M9 agar containing 2×MIC of SMs. S. typhimurium WT growth in 2% DMSO, 20 μg/ml chloramphenicol, or 50 μg/ml kanamycin, and adjusted M9 medium only were used as controls. The plate was sealed with parafilm and incubated for 15 days in the dark at 37° C. After 15 days, 100 μl of LB broth was added to the wells of 24-well plate showing no colonies in order to resuspend the potential surviving bacteria and transferred into a 5 ml tube.
The plate was incubated in the dark at 37° C., 175 rpm for 12 hrs. After this first passage, the plate was centrifuged for seven min at 4500 rpm. Supernatant was replaced with a fresh adjusted M9 broth media amended with 0.75×MIC of the corresponding SM. This procedure was repeated fourteen times. Following the 15th passage, a dose-response assay was performed on the remaining alive S. typhimurium bacteria as describe previously.

[8] = system: Salmonella Newport; test: MIC and MBC dose-response, serotype Newport; type: cell-based, Salmonella enterica; conditions: MIC identical to MBC
Method: as §1, §2

[9] = system: Salmonella Albany; test: MIC and MBC dose-response, serotype Albany; type: cell-based, Salmonella enterica; conditions: MIC identical to MBC
Method: as §1, §2

[10] = system: Salmonella Anatum; test: MIC and MBC dose-response, serotype Anatum; type: cell-based, Salmonella enterica; conditions: MIC identical to MBC
Method: as §1, §2

[11] = system: S. typhimurium WT; test: MIC and MBC dose-response, serotype Typhimurium; type: cell-based, Salmonella enterica subsp. enterica serovar Typhimurium LT2; conditions: Salmonella serotype Typhimurium; MIC identical to MBC
Method: as §1, §2

[12] = system: Kan^R S. typhimurium; test: Preventive efficacy in S. typhimurium-infected G. mellonella larvae; type: in vivo, Galleria mellonella; conditions: 72 HPI; pretreated with 12.5 μg per larva 2 hrs before infection
Method: FIGS. 4(A-B). Preventive antimicrobial efficacy of SM treatment in S. typhimurium-infected G. mellonella. Larva were first treated with 12.5 μg SMs per larva (50 mg/kg), incubated for 2 hrs at 37° C. in the dark, then infected with 10^4 CFU per larva, and further incubated at 37° C. in the dark for 72 hrs. FIG. 4A: G. mellonella larva survival rate. Survival rate was monitored every 12 hours for 72 hrs. Infected larva treated with chloramphenicol control (CK) had 100% survival. FIG. 4B: Bacterial quantification of Salmonella inside larvae following death of larva or, if alive, after 72 hours of incubation. Light black dot: larva still alive after 72 hrs post-inoculation (HPI); Black dot: larvae dead before 72 HPI.
Effect of the selected four SMs on S. typhimurium intracellular survival in G. mellonella larvae: Wax moths were selected as mentioned previously in the toxicity assay section. First, the virulence of both Kan^R and WT S. typhimurium strains in G. mellonella was assessed. Briefly, a S. typhimurium suspension normalized at approximately 10^6 CFU/ml in 10 mM MgSO4 was used as the inoculum. […] Survival rate was monitored every 12 hrs. The bacterial quantification was performed once the larvae were considered dead (dark pigmentation or no reaction to a mechanical stimulus) or after the 72 hrs of incubation. […]

Structure (SMILES) | MIC/MBC [1] [µM] | Effect on S. Typhimurium at 200 μM [2] | MIC/MBC [3] [µM] | MIC/MBC [4] [µM] | MIC/MBC [5] [µM] | MIC/MBC [6] [µM] | resistance after repeated exposure at sub-lethal dose ([7]; 0.75×MIC in liquid medium, 15 passages at 37° C.) | resistance after single exposure at a lethal dose ([7]; 2×MIC in solid medium) | SM concentration at which resistant bacteria were able to grow ([7]; minimal growth condition, represents 4×MBC) [µM] | MIC/MBC [8] [µM] | MIC/MBC [9] [µM] | MIC/MBC [10] [µM] | MIC/MBC [11] [µM] | survival of infected larvae [12] [%]
CN(CCO)CC(O)Cn1c2ccc(Br)cc2c2cc(Br)ccc21 (centres unmarked) [SM2, 1-(3,6-dibromo-9H-carbazol-9-yl)-3-[(2-hydroxyethyl)(methyl)amino]-2-propanol] | 200 (≈ 91.2 µg/mL) | Bactericidal | 200 (≈ 91.2 µg/mL) | 200 (≈ 91.2 µg/mL) | 200 (≈ 91.2 µg/mL) | 200 (≈ 91.2 µg/mL) | developed resistance mechanisms | developed resistance mechanisms | 400 | 200 (≈ 91.2 µg/mL) | 200 (≈ 91.2 µg/mL) | 200 (≈ 91.2 µg/mL) | 100 (≈ 45.6 µg/mL) | 
O=C(N[C@H](CO)[C@H](O)c1ccc([N+](=O)[O-])cc1)C(Cl)Cl [chloramphenicol] |  |  |  |  |  |  |  |  |  |  |  |  |  | 100
